Assay results as given in article PMC8280143, “A novel dephosphorylation targeting chimera selectively promoting tau removal in tauopathies” (Signal Transduction and Targeted Therapy, 2021).
Entries after “also recorded” stand apart in the source; their conditions may differ.

Key:
[1] = tested on: brain-blood barrier (BBB); test: Brain-blood barrier penetration after tail vein delivery; format: in vivo; conditions: delivered through mouse tail vein; 10 mM; 2-month male C57BL/6 mice
Description: (§1) For 2-month male C57BL/6 mice, 10 mM FITC-labeled or unlabeled-DEPTAC were directly injected through the tail vein or lateral ventricle for the evaluation of BBB-penetrability. For 9-month 3×Tg AD mice or Tau368 (20–30 g body weight), unlabeled-DEPTAC (5 mM, 1 μL for each time) was delivered for once into the lateral ventricle through direct stereotaxic injection, or repeatedly administrated through guiding cannulas (RWD, Shenzhen, China) implanted into the lateral ventricle once every 3 days for a consecutive month to test its dephosphorylation efficiency. Mice were restricted in a custom designed device and stayed awake during drug administration, and sacrificed at 24 h post the single or last DEPTAC administration.

[2] = tested on: dentate granular cells of Tau368 mice; test: Sholl analysis of dendrite complexity; format: in vivo, mouse
Description: as §1
A total volume of 0.3 μL mixture of AAV-CaMKIIα-Cre (5.21E+07) and AAV-EF1α-DIO-mCherry (3.24E+12) (1:1 vol/vol) was stereotaxically injected into the dDG of Tau368 mice 1 month following the beginning of dox or normal drinking water administration. Dox was stopped 1-month post AAVs injection, and DEPTAC were delivered through lateral ventricle for a consecutive month. Behavioral tests were performed after the DEPTAC administration, and mice were killed after behavioral tests. Hippocampal sections of 60 μm were obtained, and fluorescent images were taken by a two-photon laser-scanning confocal microscope (LSM710, Zeiss). The dendrite complexity of granular cells in the dorsal dentate gyrus was evaluated by Sholl analysis using Simple Neurite Tracer plugin and ImageJ (Fiji) software. Dendrite spine density and the averaged area of mossy fiber punctas were evaluated using ImageJ by an experimenter blinded from mice groupings. It should be noted that the fluorescence-labeled mossy fibers assembled densely in the CA3 subset, the main target area of mossy fiber axon terminals, making it difficult to accurately measure the puncta areas (data not shown). Therefore, we chose the hilus of DG subset for the measurement, which we believe should be also valid to indicate the axon plasticity of DG granular cells.

endogenous mouse tau = test: Hippocampal endogenous mouse tau in NW-administrated Tau368 mice; format: in vivo; conditions: 30 μg total protein
Description: Mice weighting 20–30 g were anesthetized with 1% pentobarbital sodium (35 mg/kg), and fixed in a stereotaxic instrument (RWD). The scalp was sterilized with iodophors and 75% ethanol, and incised along the skull midline. Holes were drilled. Adeno-associated virus or DEPTAC was injected into the dorsal DG (posterior 1.9 mm, lateral ±1.1 mm from the bregma, ventral −2.0 from the skull) or lateral ventricle (posterior 0.22 mm, lateral ±1.0 mm from the bregma, ventral −2.5 from the skull), respectively, using an automatic microinjection system (World Precision Instruments, USA) at a rate of 0.05 μL/min. The needle syringe was left in place for 5 min before withdrawal. The skin was sutured and sterilized with iodophors. Mice were placed on thermos tank for analepsia.
as §1
Cultured cells or hippocampus tissues were collected on ice, and homogenized with RIPA lysis buffer containing 50 mM Tris-HCl, 100 mM NaCl, 1% Triton X-100, 5 mM EDTA, and 1:100 PMSF, and then centrifuged at 12,000 × g for 20 min. The supernatant was collected for the analysis of soluble proteins. In some experiments, the pellets were further incubated with 8% SDS buffer at 37 °C and then ultrasound for 60 times to reach a complete resuspension for the analysis of insoluble tau. Protein concentration was measured through BCA assays (Thermo Fisher). Equal amount of protein from each sample were separated in SDS-PAGE gels, and then transferred onto nitrocellulose or 0.22 μm polyvinylidene fluoride membranes (Merck Millipore). The membranes were blocked with 5% BSA, and incubated in turn with primary and horseradish peroxidase-conjugated secondary antibodies: pS199-Tau (44734G, Invitrogen, 1:2000), pT205-Tau (11108-1, Signalway, 1:2000), pS396-Tau (11102, Signalway, 1:2000), pS404-Tau (11112, Signalway, 1:2000), AT8 (MN1020, Thermo Fisher, 1:1000), Tau5 (ab80579, Abcam, 1:1000), Tau46 (T9450, Sigma, 1:1000), PP2A-Bα (4953, Cell signaling, 1:1000), Phospho-Ser/Thr (ab17464, Abcam1:1000), Ubiquitin (ab7254, Abcam, 1:1000), MAP2 (AB5622, Millipore, 1:2000), hTau-N368 (a generous gift from Prof. Keqiang Ye, Emory University School of Medicine, 1:1000), DEPTAC (developed by Daian Biotechnology, Wuhan, China, 1:500), β-actin (ab6276, Abcam, 1:2000). HRP-conjugated goat anti-rabbit IgG (A0208, Beyotime, 1:3000), HRP-conjugated goat anti-mouse IgG (A0216, Beyotime, 1:3000). Blots were visualized using ECL luminol reagent (P0018FS, Beyotime), and quantified using ImageJ software.

tau and PP2A-B = test: Co-immunoprecipitation of DEPTAC with tau and PP2A-B in primary neurons; format: cell-based; conditions: primary cultured rat neurons
Description: Primary hippocampal neurons were prepared from E12–E15 days SD rat embryos. Briefly, pregnant rats were acutely executed, hippocampus was dissected on ice and gently minced in DME/F12 (Hyclone) then suspended in 0.125% (vol/vol) trypsin solution at 37 °C for 20 min. Enzymatic activity was stopped by fetal bovine serum. Neurons were initially kept in 10% FBS-containing DME/F12 for 4–6 h, and subsequently cultured in Neurobasal (Hyclone) with 2% B27, 1% glutamax and 1% penicillin–streptomycin (Thermo Fisher Scientific) in dishes pre-coated with 100 μg/mL poly-D-lysine. Serum was gradually removed by replacing half of the medium for each time within the following 2 days. Especially, to inhibit the proteasome-dependent proteolysis, the cultured hippocampal neurons were treated with 5 μM MG132 for 5 h before harvest.
For co-immunoprecipitation, cultured cells were lysed on ice with RIPA buffer for 10 min containing 1:100 PMSF. Protein samples were incubated with protein G agarose (Beyotime) at 4 °C for 2 h, and then centrifuged for 5 min (4 °C, 12,000 rpm). Supernatants were subsequently incubated with specified antibodies and protein G agarose overnight at 4 °C. […] Immunoprecipitants were subsequently analyzed through Western blotting.

[3] = NW Tau368 mice (no dox), n = 3–4

(1) YQQYQDATADEQG, originates from the porcine β-tubulin 422–434 for recognizing and binding tau proteins.[5],[6] (2) GSGS, a linker for increasing the flexibility of the peptide.[15] (3) KKVAVVRTPPKSP, for recruiting PP2A-Bα,[16] and (4) RRRRRRRR [DEPTAC, DEPhosphorylation TArgeting Chimera; 38 amino acid residues, C185H314N72O56]
brain-blood barrier (BBB) penetrating efficiency [1]: limited | dendrite complexity, NW-treated ([2]; NW-treated Tau368 mice, n = 3~5 mice, 12~22 neurons): did not statistically change; also recorded: no statistically significant change | neurite differentiation in control mice ([2]; control mice without human tau accumulation): did not statistically change | dendrite complexity, dox-treated ([2]; dox-treated Tau368 mice, n = 3~5 mice, 12~22 neurons): did not statistically change; also recorded: no statistically significant change | endogenous mouse tau phosphorylation at Ser199 (endogenous mouse tau; [3]): limited effect | endogenous mouse tau phosphorylation at Ser396 (endogenous mouse tau; [3]): significantly downregulate | endogenous mouse tau phosphorylation at Ser404 (endogenous mouse tau; [3]): significantly downregulate | endogenous mouse tau phosphorylation at Thr205 (endogenous mouse tau; [3]): significantly downregulate | endogenous mouse tau, AT8 epitope (endogenous mouse tau; [3]): limited effect | endogenous mouse total tau (endogenous mouse tau; [3]): limited effect | efficiency of DEPTAC on mouse tau (endogenous mouse tau; NW Tau368 mice, overall, compared with dox group): relatively limited | total tau level over time (tau and PP2A-B; 6–24 h of post-DEPTAC treatment): time-dependent decrease; also recorded: gradual decrease | co-immunoprecipitation of DEPTAC with tau and PP2A-B (tau and PP2A-B; DEPTAC antibody, 24 h / 12 h (b9)): detected; also recorded: confirmed
